Experimental data from patent US20240158412A1 (Faxian Therapeutics, LLC, priority 2021, published 2024).

Molecular target: USP7 (Homo sapiens, UniProt Q93009)
Assay: biochemical
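Also: fluorescence intensity readout of USP7 enzymatic activity, reaction incubated 90 min at room temperature.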

USP7, sequence (Q93009 whole entry): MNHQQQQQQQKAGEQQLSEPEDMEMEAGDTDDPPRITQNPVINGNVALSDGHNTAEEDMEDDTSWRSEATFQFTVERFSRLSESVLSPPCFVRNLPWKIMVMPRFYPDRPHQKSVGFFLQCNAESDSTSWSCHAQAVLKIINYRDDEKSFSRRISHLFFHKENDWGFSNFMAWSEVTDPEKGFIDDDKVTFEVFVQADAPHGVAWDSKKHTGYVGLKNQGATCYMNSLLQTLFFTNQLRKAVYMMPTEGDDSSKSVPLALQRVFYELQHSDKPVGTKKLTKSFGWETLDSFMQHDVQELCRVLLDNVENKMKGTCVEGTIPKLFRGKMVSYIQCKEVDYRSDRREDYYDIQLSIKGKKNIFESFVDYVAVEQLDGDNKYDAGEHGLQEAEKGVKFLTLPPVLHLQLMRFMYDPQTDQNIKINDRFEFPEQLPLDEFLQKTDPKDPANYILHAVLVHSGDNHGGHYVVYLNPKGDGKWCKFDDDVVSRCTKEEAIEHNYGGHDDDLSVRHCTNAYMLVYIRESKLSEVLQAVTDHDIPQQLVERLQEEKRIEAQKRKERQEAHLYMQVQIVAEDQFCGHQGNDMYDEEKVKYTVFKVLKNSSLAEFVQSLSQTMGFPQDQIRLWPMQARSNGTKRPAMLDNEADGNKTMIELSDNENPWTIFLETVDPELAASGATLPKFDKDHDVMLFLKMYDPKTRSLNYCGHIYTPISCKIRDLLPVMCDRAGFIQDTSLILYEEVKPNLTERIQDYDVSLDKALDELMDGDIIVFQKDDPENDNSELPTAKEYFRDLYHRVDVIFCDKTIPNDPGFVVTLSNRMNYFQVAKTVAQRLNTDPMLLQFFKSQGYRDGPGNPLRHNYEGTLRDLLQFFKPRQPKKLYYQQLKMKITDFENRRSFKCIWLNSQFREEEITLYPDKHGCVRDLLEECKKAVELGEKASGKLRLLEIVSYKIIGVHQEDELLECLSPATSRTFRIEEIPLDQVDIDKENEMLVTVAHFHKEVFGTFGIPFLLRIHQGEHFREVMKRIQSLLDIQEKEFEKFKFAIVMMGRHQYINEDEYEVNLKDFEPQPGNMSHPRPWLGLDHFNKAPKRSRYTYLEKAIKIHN
Experimental: Example A. Biochemical Assay of USP7 Inhibitor Potency (IC50)
Fluorescence intensity assay of USP7 activity in the presence USP7 inhibitors. Recombinant USP7 protein (catalogue number E-519) and the fluorescence substrate ubiquitin-rhodamine 110 (Rh110) (catalogue number U-555) were purchased from Boston Biochem (840 Memorial Drive, Cambridge, MA 02139). The reaction was carried out in buffer 20 mM HEPES, pH 7.3, 150 mM NaCl, 1 mM TCEP, 125 μg/mL BSA at room temperature in a black 384-well Microplate (Greiner, catalog number 781076).
Test compounds were dissolved in DMSO to make 50 mM stock solution. […] In wells of a black 384-well Microplate, 15 μl of 100 pM of USP7 enzyme was added to each well with pre-diluted compounds and incubated at room temperature for 30 minutes, followed by addition of 10 μl of ubiquitin-rhodamine 110 (Rh110) substrate to reach 160 nM final concentration. The reaction mixtures were incubated for additional 90 minutes at room temperature. The fluorescence signal of the digested substrate was measured on an EnVision microplate reader (PerkinElmer,), using excitation at 485 nm and emission at 535 nm. The IC50 values were calculated using XLfit software.

Compound	IC50
O=C1CCC(=O)N1Cc1cc2nccc(-c3cc(Cl)cc4c3N(C3CC5(CNC5)C3)CCC4)c2s1 [Example 137, 1-[[7-[1-(2-azaspiro[3.3]heptan-6-yl)-6-chloro-3,4-dihydro-2H-quinolin-8-yl]thieno[3,2-b]pyridin-2-yl]methyl]pyrrolidine-2,5-dione]	10 to 100 nM
CN1CC2(CC(N3CCCc4cc(Cl)cc(-c5ccnc6cc(CN7C(=O)CCC7=O)sc56)c43)C2)C1 [Example 138, 1-[[7-[6-chloro-1-(2-methyl-2-azaspiro[3.3]heptan-6-yl)-3,4-dihydro-2H-quinolin-8-yl]thieno[3,2-b]pyridin-2-yl]methyl]pyrrolidine-2,5-dione]	10 to 100 nM
CN1C[C@@H](N2CCCc3cc(Cl)cc(-c4ccnc5cc(CN6C(=O)CCC6=O)sc45)c32)CC12CCC2 [Example 140, (S)-1-((7-(6-chloro-1-(5-methyl-5-azaspiro[3.4]octan-7-yl)-1,2,3,4-tetrahydroquinolin-8-yl)thieno[3,2-b]pyridin-2-yl)methyl)pyrrolidine-2,5-dione]	< 10 nM
O=C1CCC(=O)N1Cc1cc2nccc(-c3cc(Cl)cc4c3N([C@@H]3CN(CCO)C5(CCC5)C3)CCC4)c2s1 [Example 141, (S)-1-((7-(6-chloro-1-(5-(2-hydroxyethyl)-5-azaspiro[3.4]octan-7-yl)-1,2,3,4-tetrahydroquinolin-8-yl)thieno[3,2-b]pyridin-2-yl)methyl)pyrrolidine-2,5-dione]	< 10 nM
O=C1CCC(=O)N1Cc1cc2nccc(-c3cc(Cl)cc4c3N([C@@H]3CN(CCF)C5(CCC5)C3)CCC4)c2s1 [Example 142, (S)-1-((7-(6-chloro-1-(5-(2-fluoroethyl)-5-azaspiro[3.4]octan-7-yl)-1,2,3,4-tetrahydroquinolin-8-yl)thieno[3,2-b]pyridin-2-yl)methyl)pyrrolidine-2,5-dione]	< 10 nM
O=C1CCC(=O)N1Cc1cc2nccc(-c3cc(Cl)cc4c3N([C@@H]3CN(CCc5nnn[nH]5)C5(CCC5)C3)CCC4)c2s1 [Example 144, (S)-1-((7-(1-(5-(2-(1H-tetrazol-5-yl)ethyl)-5-azaspiro[3.4]octan-7-yl)-6-chloro-1,2,3,4-tetrahydroquinolin-8-yl)thieno[3,2-b]pyridin-2-yl)methyl)pyrrolidine-2,5-dione]	10 to 100 nM
O=C1C2CC2C(=O)N1Cc1cc2nccc(-c3cc(Cl)cc4c3N([C@@H]3CNC5(CCC5)C3)CCC4)c2s1 (stereo partly drawn) [Example 145, 3-((7-(6-chloro-1-((S)-5-azaspiro[3.4]octan-7-yl)-1,2,3,4-tetrahydroquinolin-8-yl)thieno[3,2-b]pyridin-2-yl)methyl)-3-azabicyclo[3.1.0]hexane-2,4-dione]	< 10 nM
O=c1ccn(C2CC(F)(F)C2)c(=O)n1Cc1cc2nccc(-c3cc(Cl)cc4c3N([C@@H]3CNC5(CCC5)C3)CCC4)c2s1 [Example 146, (S)-3-((7-(6-chloro-1-(5-azaspiro[3.4]octan-7-yl)-1,2,3,4-tetrahydroquinolin-8-yl)thieno[3,2-b]pyridin-2-yl)methyl)-1-(3,3-difluorocyclobutyl)pyrimidine-2,4(1H,3H)-dione]	< 10 nM
CC1(C)C2C(=O)N(Cc3cc4nccc(-c5cc(Cl)cc6c5N([C@@H]5CNC7(CCC7)C5)CCC6)c4s3)C(=O)C21 (stereo partly drawn) [Example 147, 3-((7-(6-chloro-1-((S)-5-azaspiro[3.4]octan-7-yl)-1,2,3,4-tetrahydroquinolin-8-yl)thieno[3,2-b]pyridin-2-yl)methyl)-6,6-dimethyl-3-azabicyclo[3.1.0]hexane-2,4-dione]	10 to 100 nM
O=c1ccn(C2CC2)c(=O)n1Cc1cc2nccc(-c3cc(Cl)cc4c3N([C@@H]3CNC5(CCC5)C3)CCC4)c2s1 [Example 148, (S)-3-((7-(6-chloro-1-(5-azaspiro[3.4]octan-7-yl)-1,2,3,4-tetrahydroquinolin-8-yl)thieno[3,2-b]pyridin-2-yl)methyl)-1-cyclopropylpyrimidine-2,4(1H,3H)-dione]	< 10 nM
O=c1ccn(C(F)F)c(=O)n1Cc1cc2nccc(-c3cc(Cl)cc4c3N([C@@H]3CNC5(CCC5)C3)CCC4)c2s1 [Example 149, (S)-3-((7-(6-chloro-1-(5-azaspiro[3.4]octan-7-yl)-1,2,3,4-tetrahydroquinolin-8-yl)thieno[3,2-b]pyridin-2-yl)methyl)-1-(difluoromethyl)pyrimidine-2,4(1H,3H)-dione]	< 10 nM
CN1CC(=O)N(Cc2cc3nccc(-c4cc(Cl)cc5c4N([C@@H]4CNC6(CCC6)C4)CCC5)c3s2)C1=O [Example 150, (S)-3-((7-(6-chloro-1-(5-azaspiro[3.4]octan-7-yl)-1,2,3,4-tetrahydroquinolin-8-yl)thieno[3,2-b]pyridin-2-yl)methyl)-1-methylimidazolidine-2,4-dione]	< 10 nM

Further lines, results first:

IC50	Compound
< 10 nM	O=C1COC(=O)N1Cc1cc2nccc(-c3cc(Cl)cc4c3N([C@@H]3CNC5(CCC5)C3)CCC4)c2s1 [Example 151, (S)-3-((7-(6-chloro-1-(5-azaspiro[3.4]octan-7-yl)-1,2,3,4-tetrahydroquinolin-8-yl)thieno[3,2-b]pyridin-2-yl)methyl)oxazolidine-2,4-dione]
10 to 100 nM	CC1(C)OC(=O)N(Cc2cc3nccc(-c4cc(Cl)cc5c4N([C@@H]4CNC6(CCC6)C4)CCC5)c3s2)C1=O [Example 152, (S)-3-((7-(6-chloro-1-(5-azaspiro[3.4]octan-7-yl)-1,2,3,4-tetrahydroquinolin-8-yl)thieno[3,2-b]pyridin-2-yl)methyl)-5,5-dimethyloxazolidine-2,4-dione]
< 10 nM	Cc1cnn(Cc2cc3nccc(-c4cc(Cl)cc5c4N([C@@H]4CNC6(CCC6)C4)CCC5)c3s2)c(=O)c1 [Example 153, (S)-2-((7-(6-chloro-1-(5-azaspiro[3.4]octan-7-yl)-1,2,3,4-tetrahydroquinolin-8-yl)thieno[3,2-b]pyridin-2-yl)methyl)-5-methylpyridazin-3(2H)-one]
< 10 nM	O=c1cc(CC(F)(F)F)cnn1Cc1cc2nccc(-c3cc(Cl)cc4c3N([C@@H]3CNC5(CCC5)C3)CCC4)c2s1 [Example 154, (S)-2-((7-(6-chloro-1-(5-azaspiro[3.4]octan-7-yl)-1,2,3,4-tetrahydroquinolin-8-yl)thieno[3,2-b]pyridin-2-yl)methyl)-5-(2,2,2-trifluoroethyl)pyridazin-3(2H)-one]
10 to 100 nM	O=C1[C@@H]2[C@H]3CC[C@H](C3)[C@@H]2C(=O)N1Cc1cc2nccc(-c3cc(Cl)cc4c3N([C@@H]3CNC5(CCC5)C3)CCC4)c2s1 [Example 155, (3aR,4S,7R,7aS)-2-((7-(6-chloro-1-((S)-5-azaspiro[3.4]octan-7-yl)-1,2,3,4-tetrahydroquinolin-8-yl)thieno[3,2-b]pyridin-2-yl)methyl)hexahydro-1H-4,7-methanoisoindole-1,3(2H)-dione]
101 to 1000 nM	CC1(C)OC(=O)C(Cc2cc3nccc(-c4cc(Cl)cc5c4N([C@@H]4CNC6(CCC6)C4)CCC5)c3s2)C(=O)O1 [Example 156, (S)-5-((7-(6-chloro-1-(5-azaspiro[3.4]octan-7-yl)-1,2,3,4-tetrahydroquinolin-8-yl)thieno[3,2-b]pyridin-2-yl)methyl)-2,2-dimethyl-1,3-dioxane-4,6-dione]
